Assay [1] relates to SKBR3 (PI3Kα-Wild Type) cell line. Nature of the assay: HTRF phospho-AKT(S473) cell assay in SKBR3 cells. Type of assay: cell-based, human. An outline of the steps:
(§1)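 T47D: RPMI + 10% FBS + 0.2 units/mL insulin, top 5 μM. SKBR3: McCoy's 5A + 10% FBS, top 10 μM, 70 ng/ml PDGF-BB last 15 min. Both: 12-pt 1:3, 2 h, 37° C, max 0.5% DMSO; HTRF pAKT(S473); IC50.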

Assay [2] has as its system T47D (PI3Kα-H1047R) cell line. Nature of the assay: HTRF phospho-AKT(S473) cell assay in T47D cells. In kind it is cell-based, human. An outline of the steps:
as §1
For orientation: In TR-FRET formats the signal depends on donor and acceptor labels being close together.

Where [3] appears, read: Homo sapiens, SK-BR-3; HTRF phospho-AKT(S473), SKBR3 (PI3Kα-Wild Type) cells, 2 hours compound incubation, PDGF-BB stimulated.
[4] abbreviates: Homo sapiens; HTRF phospho-AKT(S473), T47D (PI3Kα-H1047R) cells, 2 hours compound incubation.
Setting [5] is: Homo sapiens, SK-BR-3; SKBR3 (PI3Kα-Wild Type) cells, HTRF phospho-AKT(S473), 2 hours compound incubation, PDGF-BB stimulated.
Setting [6] is: Homo sapiens; T47D (PI3Kα-H1047R) cells, HTRF phospho-AKT(S473), 2 hours compound incubation.

A word on the IC50: it is the concentration that gives 50% inhibition. A high value points to weaker potency.

Molecules are shown by their SMILES.

As to `Cc1cc([C@@H](C)Nc2ccc(Cl)nc2C(=O)NS(C)(=O)=O)c2nc(N3C[C@@H]4[C@H](C3)[C@H]4n3ncc(F)c3C)n(C)c(=O)c2c1` [Compound 632, 6-chloro-3-(((R)-1-(2-((1R,5S,6S)-6-(4-fluoro-5-methyl-1H-pyrazol-1-yl)-3-azabicyclo[3.1.0]hexan-3-yl)-3,6-dimethyl-4-oxo-3,4-dihydroquinazolin-8-yl)ethyl)amino)-N-(methylsulfonyl) picolinamide], the IC50 in assay [1] (setting [3]) lay within 1000 to 5000 nM; in assay [2] (setting [4]) it was 250 to 500 nM.

Take `Cc1cc([C@@H](C)Nc2ccc(Cl)nc2C(=O)NS(C)(=O)=O)c2nc(N3C[C@@H]4[C@H](C3)[C@H]4c3c(F)cnn3C)n(C)c(=O)c2c1` [Compound 424, 6-chloro-3-(((R)-1-(2-((1R,5S,6R)-6-(4-fluoro-1-methyl-1H-pyrazol-5-yl)-3-azabicyclo[3.1.0]hexan-3-yl)-3,6-dimethyl-4-oxo-3,4-dihydroquinazolin-8-yl)ethyl)amino)-N-(methylsulfonyl) picolinamide]: the values for the IC50 in assay [1] (setting [5]) and in assay [2] (setting [6]) were no less than 5000 nM and 250 to 500 nM, respectively.

For `Cc1cc([C@@H](C)Nc2ccc(Cl)nc2C(=O)NS(C)(=O)=O)c2nc(N3CCN(c4ccc(C#N)cn4)CC3)n(C)c(=O)c2c1` [Compound 164, (R)-6-chloro-3-((1-(2-(4-(5-cyanopyridin-2-yl)piperazin-1-yl)-3,6-dimethyl-4-oxo-3,4-dihydroquinazolin-8-yl)ethyl)amino)-N-(methylsulfonyl) picolinamide], the IC50 in assay [1] (setting [5]) is 1000 to 5000 nM; in assay [2] (setting [6]), less than 250 nM.

Regarding `Cc1cc([C@@H](C)Nc2ccc(Cl)nc2C(=O)NS(C)(=O)=O)c2nc(-c3ccc4nn(CC(F)(F)F)cc4c3)n(C)c(=O)c2c1` [Compound 784, (R)-6-chloro-3-((1-(3,6-dimethyl-4-oxo-2-(2-(2,2,2-trifluoroethyl)-2H-indazol-5-yl)-3,4-dihydroquinazolin-8-yl)ethyl)amino)-N-(methylsulfonyl) picolinamide], the values for the IC50 in assay [1] (setting [3]) and in assay [2] (setting [4]) were 1000 to 5000 nM and less than 250 nM, respectively.

Regarding `Cc1cc([C@@H](C)Nc2ccc(Cl)nc2C(=O)NS(C)(=O)=O)c2nc(N3CCC(c4nc(C)nn4C(F)F)CC3)n(C)c(=O)c2c1` [Compound 724, (R)-6-chloro-3-((1-(2-(4-(1-(difluoromethyl)-3-methyl-1H-1,2,4-triazol-5-yl)piperidin-1-yl)-3,6-dimethyl-4-oxo-3,4-dihydroquinazolin-8-yl)ethyl)amino)-N-(methylsulfonyl) picolinamide], the IC50 in assay [1] (setting [3]) fell in the range of 1000 to 5000 nM; in assay [2] (setting [4]), 250 to 500 nM.

Turning to `Cc1cc([C@@H](C)Nc2ccc(Cl)nc2C(=O)NS(C)(=O)=O)c2nc(N3CCc4nn(CC(F)(F)F)cc4C3)n(C)c(=O)c2c1` [Compound 220, (R)-6-chloro-3-((1-(3,6-dimethyl-4-oxo-2-(2-(2,2,2-trifluoroethyl)-2,4,6,7-tetrahydro-5H-pyrazolo[4,3-c]pyridin-5-yl)-3,4-dihydroquinazolin-8-yl)ethyl)amino)-N-(methylsulfonyl) picolinamide], the values for the IC50 in assay [1] (setting [5]) and in assay [2] (setting [6]) were 1000 to 5000 nM and less than 250 nM, respectively.

In the case of `Cc1cc([C@@H](C)Nc2ccc(Cl)nc2C(=O)NS(C)(=O)=O)c2nc(N3CCCC(c4ncc(Cl)cn4)C3)n(C)c(=O)c2c1` (stereo in doubt) [Compound 587, 6-chloro-3-(((R)-1-(2-((R*)-3-(5-chloropyrimidin-2-yl)piperidin-1-yl)-3,6-dimethyl-4-oxo-3,4-dihydroquinazolin-8-yl)ethyl)amino)-N-(methylsulfonyl) picolinamide], the IC50 in assay [1] (HTRF phospho-AKT(S473), SKBR3 (PI3Kα-Wild Type) cells, 2 hours compound incubation, PDGF-BB stimulated) is no less than 5000 nM; in assay [2] (HTRF phospho-AKT(S473), T47D (PI3Kα-H1047R) cells, 2 hours compound incubation) it was 250 to 500 nM.

With `Cc1cc([C@@H](C)Nc2ccc(Cl)nc2C(=O)NS(C)(=O)=O)c2nc(N3C[C@H]4C[C@@H]3CN4c3ncc(C#N)cc3F)n(C)c(=O)c2c1` [Compound 767, 6-chloro-3-(((R)-1-(2-((1R,4R)-5-(5-cyano-3-fluoropyridin-2-yl)-2,5-diazabicyclo [2.2.1]heptan-2-yl)-3,6-dimethyl-4-oxo-3,4-dihydroquinazolin-8-yl)ethyl)amino)-N-(methylsulfonyl) picolinamide], the IC50 in assay [1] (setting [3]) was no less than 5000 nM; in assay [2] (setting [4]), 250 to 500 nM.

Consider `Cc1cc([C@@H](C)Nc2ccc(Cl)nc2C(=O)NS(C)(=O)=O)c2nc(N3C[C@@H]4C[C@H]3CN4c3ncc(C#N)cc3F)n(C)c(=O)c2c1` [Compound 579, 6-chloro-3-(((R)-1-(2-((1S,4S)-5-(5-cyano-3-fluoropyridin-2-yl)-2,5-diazabicyclo [2.2.1]heptan-2-yl)-3,6-dimethyl-4-oxo-3,4-dihydroquinazolin-8-yl)ethyl)amino)-N-(methylsulfonyl) picolinamide], for which the IC50 in assay [1] (setting [3]) was no less than 5000 nM; in assay [2] (setting [4]), 250 to 500 nM.

Turning to `Cc1cc([C@@H](C)Nc2ccc(Cl)nc2C(=O)NS(C)(=O)=O)c2nc(N3C[C@@H]4[C@H](C3)[C@H]4c3cnc(C(F)(F)F)nc3)n(C)c(=O)c2c1` [Compound 484, 6-chloro-3-(((R)-1-(3,6-dimethyl-4-oxo-2-((1R,5S,6S)-6-(2-(trifluoromethyl)pyrimidin-5-yl)-3-azabicyclo[3.1.0]hexan-3-yl)-3,4-dihydroquinazolin-8-yl)ethyl)amino)-N-(methylsulfonyl) picolinamide], the values for the IC50 in assay [1] (setting [3]) and in assay [2] (setting [4]) were 1000 to 5000 nM and 250 to 500 nM, respectively.

In the case of `Cc1cc([C@@H](C)Nc2ccc(Cl)nc2C(=O)NS(C)(=O)=O)c2nc(-c3ccc4oc(C)nc4c3)n(C)c(=O)c2c1` [Compound 821, (R)-6-chloro-3-((1-(3,6-dimethyl-2-(2-methylbenzo[d]oxazol-5-yl)-4-oxo-3,4-dihydroquinazolin-8-yl)ethyl)amino)-N-(methylsulfonyl) picolinamide], the results for the IC50 in assay [1] (setting [3]) and in assay [2] (setting [4]) were no less than 5000 nM and 250 to 500 nM, respectively.

`Cc1cc([C@@H](C)Nc2ccc(Cl)nc2C(=O)NS(C)(=O)=O)c2nc(N3CCC(n4c(C)nc5ccccc54)CC3)n(C)c(=O)c2c1` [Compound 268, (R)-6-chloro-3-((1-(3,6-dimethyl-2-(4-(2-methyl-1H-benzo[d]imidazol-1-yl)piperidin-1-yl)-4-oxo-3,4-dihydroquinazolin-8-yl)ethyl)amino)-N-(methylsulfonyl) picolinamide]: the results for the IC50 in assay [1] (setting [5]) and in assay [2] (setting [6]) were no less than 5000 nM and less than 250 nM, respectively.

For `Cc1cc([C@@H](C)Nc2ccc(Cl)nc2C(=O)NS(C)(=O)=O)c2nc(-c3ccc(-c4noc(C)n4)nc3)n(C)c(=O)c2c1` [Compound 303, (R)-6-chloro-3-((1-(3,6-dimethyl-2-(6-(5-methyl-1,2,4-oxadiazol-3-yl)pyridin-3-yl)-4-oxo-3,4-dihydroquinazolin-8-yl)ethyl)amino)-N-(methylsulfonyl) picolinamide], the IC50 in assay [1] (setting [5]) fell in the range of 1000 to 5000 nM; in assay [2] (setting [6]), 250 to 500 nM.

As to `Cc1cc([C@@H](C)Nc2ccc(Cl)nc2C(=O)NS(C)(=O)=O)c2nc(N3CCC4(CCN(c5ccn(C)n5)C4)C3)n(C)c(=O)c2c1` (stereo partly drawn) [Compound 371, 6-chloro-3-(((1R)-1-(3,6-dimethyl-2-(7-(1-methyl-1H-pyrazol-3-yl)-2,7-diazaspiro[4.4]nonan-2-yl)-4-oxo-3,4-dihydroquinazolin-8-yl)ethyl)amino)-N-(methylsulfonyl) picolinamide], the IC50 in assay [1] (setting [5]) is 1000 to 5000 nM; in assay [2] (setting [6]) it was less than 250 nM.

Consider `Cc1cc([C@@H](C)Nc2ccc(Cl)nc2C(=O)NS(C)(=O)=O)c2nc(N3C[C@@H]4[C@H](C3)[C@H]4c3cnc(C)o3)n(C)c(=O)c2c1` [Compound 518, 6-chloro-3-(((R)-1-(3,6-dimethyl-2-((1R,5S,6R)-6-(2-methyloxazol-5-yl)-3-azabicyclo[3.1.0]hexan-3-yl)-4-oxo-3,4-dihydroquinazolin-8-yl)ethyl)amino)-N-(methylsulfonyl) picolinamide], for which the figures for the IC50 in assay [1] (setting [3]) and in assay [2] (setting [4]) were 1000 to 5000 nM and less than 250 nM, respectively.

In the case of `Cc1cc([C@@H](C)Nc2ccc(Cl)nc2C(=O)NS(C)(=O)=O)c2nc(N3CCC(c4nn(C5CC5)cc4F)CC3)n(C)c(=O)c2c1` [Compound 505, (R)-6-chloro-3-((1-(2-(4-(1-cyclopropyl-4-fluoro-1H-pyrazol-3-yl)piperidin-1-yl)-3,6-dimethyl-4-oxo-3,4-dihydroquinazolin-8-yl)ethyl)amino)-N-(methylsulfonyl) picolinamide], the IC50 in assay [1] (setting [3]) was no less than 5000 nM; in assay [2] (setting [4]), 250 to 500 nM.

In the case of `Cc1cc([C@@H](C)Nc2ccc(Cl)nc2C(=O)NS(C)(=O)=O)c2nc(N3CCC(n4nc(C)cc4F)CC3)n(C)c(=O)c2c1` [Compound 490, (R)-6-chloro-3-((1-(2-(4-(5-fluoro-3-methyl-1H-pyrazol-1-yl)piperidin-1-yl)-3,6-dimethyl-4-oxo-3,4-dihydroquinazolin-8-yl)ethyl)amino)-N-(methylsulfonyl) picolinamide], the figures for the IC50 in assay [1] (setting [3]) and in assay [2] (setting [4]) were no less than 5000 nM and 250 to 500 nM, respectively.

On to `Cc1cc([C@@H](C)Nc2ccc(Cl)nc2C(=O)NS(C)(=O)=O)c2nc(N3CCC[C@H](c4conc4C)C3)n(C)c(=O)c2c1` (relative stereo) [Compound 306, 6-chloro-3-(((R)-1-(3,6-dimethyl-2-((R*)-3-(3-methylisoxazol-4-yl)piperidin-1-yl)-4-oxo-3,4-dihydroquinazolin-8-yl)ethyl)amino)-N-(methylsulfonyl) picolinamide], for which the IC50 in assay [1] (setting [5]) was 1000 to 5000 nM; in assay [2] (setting [6]) it was less than 250 nM.

For the origin of these results see patent US12281122B1, “PI3K inhibitors” (Cogent Biosciences, Inc., priority 2023, dated 2025).
